Test results as given in patent US20260191986A1, “LIPOSOME-BASED DRUG CARRIER FOR IMMUNE ANTICANCER THERAPY AND METHOD FOR PRODUCING SAME” (KONKUK UNIVERSITY INDUSTRIAL COOPERATION CORP, priority 2022, published 2026).

How the values were obtained:
[1] = system: MDA-MB-231 cells; assay: Extracellularly released ATP (ICD biomarker) after DOX or CIS; assay type: cell-based, human; conditions: different concentrations of drug
Protocol: (§1) First, the efficacy of doxorubicin (DOX) as a potent ICD inducer in a breast cancer 4T1 tumor model and cancer cells was tested by monitoring the change in the TME (tumor microenvironment). To validate the immunogenic effect of DOX, immunogenic cell death (ICD) biomarkers, such as extracellularly released ATP and cell surface expressing CRT, were monitored in breast cancer cells (human: MDA-MB-231 cells; mouse: 4T1 cells) treated with different concentrations of DOX and cisplatin (CIS), a non-ICD inducer, as a comparative control group.

[2] = system: 4T1 cells; assay: as above; assay type: cell-based, mouse; conditions: different concentrations of drug
Protocol: as §1

[3] = system: MDA-MB-231 cells; assay: Cell surface CRT expression (ICD biomarker) after DOX or CIS; assay type: cell-based, human; conditions: different concentrations of drug
Protocol: as §1

[4] = system: 4T1 cells; assay: as above; assay type: cell-based, mouse; conditions: different concentrations of drug
Protocol: as §1

[5] = system: 4T1 cells; assay: Vaccine approach: tumor growth in Balb/c mice vaccinated with drug-treated dead 4T1 cells; assay type: in vivo; conditions: DOX 30 μM or CIS 100 μM; live 4T1 cells in opposite flank; 25 days
Protocol: (§2) The effect of DOX-induced ICD in Balb/c mice was further validated by vaccine approach. Dead 4T1 cells were subcutaneously injected into one flank of Balb/c mice together with an anticancer agent such as DOX (30 μM) or CIS (100 μM), or phosphate-buffered saline (PBS; control), twice for 2 weeks, with a 1-week interval. At two weeks after the first injection, live 4T1 cancer cells were injected into the opposite flank and the change in tumor size was evaluated for 25 days.

[6] = system: IDO1; assay: IDO1 expression in tumors obtained by vaccine approach; assay type: in vivo, Balb/c mice; conditions: mice vaccinated with drug-treated 4T1 cells
Protocol: as §2
(§3) Subsequently, it was investigated whether the DOX-induced ICD can induce the expression of IDO1 in a breast cancer mouse model as an indicator of the immune evasion mechanism in TME. In order to investigate the relationship between the expression of ICD and IDO1 in TME, the expression level of IDO1 in the tumors obtained by vaccine approach was investigated, and the result is shown in FIG. 4. […] Meanwhile, it was confirmed that the DOX-induced ICD upregulates IDO1 expression in tumor tissues via the immune evasion mechanism.

[7] = system: MDA-MB-231 cells; assay: Intracellular distribution of DOX by confocal microscopy; assay type: cell-based, human
Protocol: (§4) In order to investigate the intracellular distribution of DOX and IDO1 siRNA delivered by the CD44/PD-L1 aptamosome, cells were treated with free DOX, Lipm [DOX/IDO1] and Aptm [DOX/IDO1] and analyzed by confocal microscopy with increasing incubation time. […] Nevertheless, a large amount of DOX was delivered easily by Aptm [DOX/IDO1] with the passage of time, and it was gradually delivered into the nucleus of MDA-MB-231 and 4T1 cells within 2 hours.

[8] = system: 4T1 cells; assay: as above; assay type: cell-based, mouse
Protocol: as §4

[9] = system: breast cancer cells; assay: DOX-induced ICD: extracellular ATP release after liposome treatment; assay type: cell-based
Protocol: Then, DOX-induced ICD was evaluated by monitoring extracellular ATP release and expression of cell surface CRT, which is an ICD marker, and the result is shown in FIG. 14.

[10] = system: MDA-MB-231; assay: Cytotoxicity (cell survivability); assay type: cell-based, human; conditions: 24 hours and 36 hours
Protocol: (§5) Next, the cytotoxicity by an anticancer agent delivered together with Aptm [DOX/IDO1] was evaluated, and the result is shown in FIG. 16. Breast cancer cells (MDA-MB-231 and 4T1) and control group liver cells (HepG2) were treated with free DOX, Lipm [DOX/IDO1] and Aptm [DOX/IDO1] for 24 hours and 36 hours.

[11] = system: 4T1; assay: Cytotoxicity (cell survivability); assay type: cell-based, mouse; conditions: 24 hours and 36 hours
Protocol: as §5

[12] = system: control group liver cells (HepG2); assay: Cytotoxicity (cell survivability); assay type: cell-based; conditions: 24 hours and 36 hours
Protocol: as §5

[13] = system: 4T1 tumor; assay: Anticancer efficacy in 4T1 tumor xenograft mice (tumor size); assay type: in vivo; conditions: i.v. 4 times with 4-day intervals; DOX 0.3 mg/kg, siRNA 0.35 mg/kg; day 24
Protocol: In addition, the anticancer efficacy of Aptm [DOX/IDO1] in the 4T1 tumor xenograft mice was investigated by measuring the decrease of tumor size, and the result is shown in FIG. 18. After the tumor size grew to 60-80 mm^3, the mice were divided randomly into 5 groups (5 mice per group) and each reagent was intravenously 4 times with 4-day intervals: saline (control group), free DOX (0.3 mg/kg), Lipm [DOX/IDO1], Aptm [DOX/IDO1] and Aptm [DOX/Ctr], each liposome containing the same amount of DOX (0.3 mg/kg) and siRNA (0.35 mg/kg). […] Morbidity was not observed when the mice were treated with Aptm [DOX/IDO1]. In particular, when the mice were treated with Aptm [DOX/Ctr] containing scrambled siRNA instead of IDO1 siRNA, the tumor size decreased by about 37.0% (vs. saline administration) due to decreased effect of inhibiting tumor growth. That is, the delivered IDO siRNA inhibits tumor growth by controlling TME.

[14] = system: TNFα; assay: TNFα secretion in the tumor of 4T1 tumor xenograft mice; conditions: mouse, in vivo
Protocol: As the effect of Aptm [DOX/IDO1] on the control of tumor microenvironment (TME), cell death, ICD marker, immune cell ratio and TNF secretion in the tumor tissue of 4T1 tumor xenograft mice were evaluated. In order to investigate DOX-induced apoptotic cell death, TUNEL assay was conducted with the tumor tissues of 4T1 tumor xenograft mice.
(§6) The effective inhibition of tumor growth improves anticancer immune response by reversing immunosuppressive TME to immunoresponsive TME in vivo by Aptm [DOX/IDO1]. In order to investigate whether tumor size reduction and TME control are mediated by IDO1 siRNA delivered to the 4T1 tumor xenograft mice, the IDO1 expression level in the tumor tissue of the mice was analyzed on day 24, and the result is shown in FIG. 20. The IDO1 expression level in the tumor obtained from the mice treated with free DOX was increased as compared to the IDO1 expression level in the tumor obtained from the mice treated with saline. […] In the tumor, the IDO1 expression was increased by the administration of Aptm [DOX/Ctr] lacking IDO1 siRNA. It is thought that the increased IDO1 expression is due to the improved ICD against the tumor due to the effective delivery of DOX using the CD44/PD-L1 aptamosome. Accordingly, the inhibition of IDO1 in combination with ICD can induce anticancer immune response in the immunoresponsive TME by Aptm [DOX/IDO1].

[15] = system: IDO1; assay: IDO1 expression level in tumor tissue of 4T1 tumor xenograft mice; assay type: in vivo; conditions: day 24
Protocol: as §6

[16] = system: 4T1 breast cancer cells; assay: Tumor metastasis to the lung in 4T1 tumor-bearing mice (H&E); assay type: in vivo; conditions: H&E staining of lung tissue
Excerpt: Finally, it was investigated whether the administration of Aptm [DOX/IDO1] can inhibit tumor metastasis in 4T1 tumor-bearing mice. For detection of metastatic tumors, tumor tissues from the terminal part of the lung of the mice were stained with hematoxylin and eosin (H&E), and the images are shown in FIG. 21. […] Therefore, it was confirmed that the systemic administration of Aptm [DOX/IDO1] through the blood can inhibit tumor metastasis through targeted delivery of an anticancer drug targeting breast cancer cells.

[17] = system: MDA-MB-231 cells; assay: IDO1 and PD-L1 expression under IFNγ stimulation; assay type: cell-based, human
Excerpt: (§7) ICD-mediated immune response can invalidate the immune evasion mechanism of TME, such as overexpression of the immune checkpoint protein and IDO1. Accordingly, the expression of IDO1 and PD-L1 under IFNγ stimulation was monitored also in MDA-MB-231 and 4T1 cells.
as §3

[18] = system: 4T1 cells; assay: IDO1 and PD-L1 expression under IFNγ stimulation; assay type: cell-based, mouse
Excerpt: as §7, §3

Row | Compound | level of extracellularly released ATP [1] | level of extracellularly released ATP [2] | CRT expression on the cancer cell surface [3] | CRT expression on the cancer cell surface [4] | tumor growth after vaccination with drug-treated dead 4T1 cells [5] | IDO1 protein and mRNA expression in tumor tissues [6] | time until DOX reached the nucleus [7] | time until DOX reached the nucleus [8] | extracellular ATP release [9] | cell survivability [10] | cell survivability [11] | cell survivability [12] | tumor size decrease as compared to saline [13] | TNFα secretion in the tumor [14] | IDO1 expression level in the tumor [15] | metastatic tumor in the lung [16] | expression level of IDO1 ([17]; IFNγ stimulation) | PD-L1 expression on the cell surface ([17]; IFNγ-treated cells) | expression level of IDO1 ([18]; IFNγ stimulation) | PD-L1 expression on the cell surface ([18]; IFNγ-treated cells)
1 | N.N.[Cl][Pt][Cl] [CIS, cisplatin] | did not increase the level of extracellular ATP | did not increase the level of extracellular ATP | did not increase the CRT expression on the cancer cell surface | did not increase the CRT expression on the cancer cell surface | did not inhibit tumor growth significantly | increased expression of IDO1 protein and mRNA | – | – | – | – | – | – | – | – | – | – | – | – | – | –
2 | COc1cccc2c1C(=O)c1c(O)c3c(c(O)c1C2=O)C[C@@](O)(C(=O)CO)C[C@@H]3O[C@H]1C[C@H](N)[C@H](O)[C@H](C)O1 [DOX, doxorubicin] | increased gradually with the concentration of DOX | increased gradually with the concentration of DOX | increased gradually as the concentration of DOX increased | increased gradually as the concentration of DOX increased | effectively inhibited tumor growth | highest IDO1 protein and mRNA expression | up to 1 hour | up to 1 hour | A large amount of ATP was released | lowest | lowest | lowest | did not reduce tumor size enough | relatively low TNFα secretion | increased | extensive filtration of 4T1 breast cancer cells was observed in the lung | – | – | – | –
3 | IFNγ: cytokine used to stimulate IDO1 and PD-L1 expression in cancer cells | – | – | – | – | – | – | – | – | – | – | – | – | – | – | – | – | significantly upregulated | highly expressed | significantly upregulated | highly expressed
